No end group written: not given here.
Columns and labels:
[1] = tested on: HCMV strain AD169; assay: HCMV plaque formation assay in MRC-5 cells; assay type: cell-based; details: for inhibition of HCMV plaque formation as compared to the virus control experiment: 10 micrograms per ml, 7-10 days
[2] = tested on: hepatitis B virus (HBV) ayw strain; assay: HBV experimental assay system (HepG2-2.2.15, TaqMan PCR of secreted HBV DNA); assay type: cell-based; details: 10 micrograms per ml; six days; HBV DNA in supernatant
[3] = tested on: Human A549 cells; assay: Apoptosis induction assay (Annexin-5); assay type: cell-based; details: 10 micrograms per ml; 24 hours
[4] = tested on: Human A549 cells; assay: Apoptosis prevention assay (C2 ceramide, Annexin-5); assay type: cell-based; details: 10 micrograms per ml; 30 min pretreatment, then C2 ceramide
Procedure: Human A549 cells (carcinomic human alveolar basal epithelial cells) were utilized in the experiments employing the Annexin-5 apoptosis assay. […] A549 cells were pretreated for 30 min with test peptides—10 micrograms per ml—followed by the exposure to C2 ceramide.

[5] = tested on: murine spleen cells; assay: Th1/Th2 cytokine profiling assay (Ovalbumin-restimulated spleen cells); assay type: cell-based, Balb/c mice; details: 10 micrograms per ml; Ovalbumin restimulation, 72 hours
Source text: The Balb/c mice (originated in 1923, it is a popular strain and is used in many different research disciplines. Also classified as an inbred from the production of 20 or more successive brother-sister matings, the Balb/c mouse is albino and small in size) were immunized on Days 1, 15, and 29 with Ovalbumin (Ovalbumin is the main protein found in egg white, commonly used to stimulate an immunological reaction in test animals) in PBS (5 micrograms/injection). On day 50, spleens of the mice were harvested (3 weeks after last boost with Ovalbumin). […] Thereafter, additional Ovalbumin was added to the cells at 10 micrograms/ml for in vitro restimulation of the cells. 72 hours later, cell supernatants were harvested and assayed using the Becton Dickinson Mouse Th1/Th2 Cytokine CBA Kit.

[6] = tested on: Primary Human endothelial cells (HUVEC); assay: Endothelial cell migration assay; assay type: cell-based; details: 10 micrograms per ml; 22 hours
[7] = tested on: HUVEC; assay: Endothelial tube formation assay; assay type: cell-based, human; details: 10 micrograms per ml; 20 hours
Source text: Positive control was vehicle only.

[8] = tested on: HIV-1IIIB; assay: HIV-1 antiviral assay in CEM-SS cells; details: HIV-1 assay

## Nc1nc(O)c2ncn(COC(CO)CO)c2n1 [Ganciclovir, reference compound]
[1]; positive control, HCMV assay
  antiviral activity of positive control compound: expected levels of antiviral activity

## Ala-Gly-Cys-Lys-Asn-Phe-Phe-Trp-Lys-Thr-Phe-Thr-Ser-Cys-OH (AGCKNFFWKTFTSC-OH; ends and bridges not checked) [Peptide 1]
[2]
  inhibition of HBV replication as compared to the virus control infection: 14.1%
[1]
  inhibition of HCMV plaque formation as compared to the virus control experiment: 1.8%
[3]
  induction of apoptosis on human lung cells: 9.4%
[4]
  induction of apoptosis on human lung cells (ceramide-induced apoptosis): 27%
[5]
  production of IFN-gamma, induced by: 65.1%
  production of IL-2, induced by: 102.7%
  production of IL-4, induced by: did not significantly change
  production of IL-5, decreased by: did not significantly change
  production of TNF-alpha, induced by: 27.5%
[6]
  migration of human endothelial cells, inhibited by: 3%
[7]
  tube formation of human endothelial cells, inhibited by: 9%

## Cc1cn([C@H]2C[C@H](N=[N+]=[N-])[C@@H](CO)O2)c(=O)[nH]c1=O [AZT]
[8]
  antiviral activity of positive control compounds: expected levels of antiviral activity

## CC(C)(C)NC(=O)[C@@H]1CN(Cc2cccnc2)CCN1C[C@@H](O)C[C@@H](Cc1ccccc1)C(=O)N[C@H]1c2ccccc2C[C@H]1O [indinavir]
[8]
  antiviral activity of positive control compounds: expected levels of antiviral activity

## Gly-Pro-Glu-OH [Peptide 2]
[2]
  inhibition of HBV replication as compared to the virus control infection: 30.7%
[1]
  inhibition of HCMV plaque formation as compared to the virus control experiment: 2.9%
[3]
  induction of apoptosis on human lung cells: 1.4%
[5]
  production of IFN-gamma, decreased by: 42.5%
  production of IL-2, induced by: 24.0%
  production of IL-4, induced by: 52.7%
  production of IL-5, decreased by: 37.2%
  production of TNF-alpha, induced by: did not significantly change
[6]
  migration of human endothelial cells, induced by: 11%
[7]
  tube formation of human endothelial cells, inhibited by: 20%
